Reference: patent US7935823B2 (priority 2007, dated 2011)

Assays:
[1] = test system: neuroblastoma line (SH—SY5Y); details: pre-treatment with one nano-molar; cited from earlier work
[2] = test system: primary rat cortical neurons; details: cultured three days; picomolar concentrations; compared with BDNF at maximally effective concentrations; cited from earlier work
[3] = test system: C57/B female mice; assay: Geroprotector activity in aging mice; type: in vivo; details: 3 mg/kg per day in drinking water
Method: Dimebon was evaluated as an agent that prolongs life and improves the quality of life (characterized by changes in the amount of pathologies that accompany ageing) in the laboratory animals.
Experiments were conducted with C57/B female mice, starting from their age of 12 months. Mice were kept on cells, 10 animals per a cell. Both control and experimental group included 50 animals in each group. […] The day-night cycle was 12 hours.
Prior to the experiment, daily and weekly water consumption by the animals in one cell was measured. Dimebon was added in water in such amount that each animal would consume 3 mg/kg of Dimebon per day in average. Bottles with water containing Dimebon were replaced every 7 days. Animals in the control group were receiving pure water.
Prior to the experiment, all the animals were weighed, and an average weight was determined in every group, every cell, as well as the weight of all animals in every cell. The condition of skin, hair, and eyes were also determined by visual inspection. […] Evaluation of all these parameters was conducted on a monthly basis.
Statistics were calculated using Student T-test and ‘Chi-squared’ criteria.

[4] = test system: mitochondrial permeability transition pores; details: MPP(+) and beta-amyloid fragment 25-35; cited from earlier work
[5] = target: NMDA receptor; details: read-out: NMDA receptor inhibition constant (Ki); cited from earlier work
[6] = human clinical studies; cited from earlier work
[7] = test system: ion channels associated with glutamate receptors; assay: Glutamate-stimulated calcium-ion uptake in rat brain synaptosomes; details: P2-fraction of synaptosomes from newborn rat brain; initial screening 5 uM
Method: Evaluation of the calcium-blocking properties of dimebon was conducted with P2-fraction of synaptosomes, which were isolated from the brain of newborn (8-11 days) rats according to the protocol described in [Bachurin et al. Neuroprotective and cognition enhancing properties of MK-801 flexible analogs. Structure-activity relationships./Ann. N.Y. Acad. Sci., 2001, v. 939, pp. 219-235]. In this test, the ability of the compounds to inhibit a specific uptake of calcium ions via ion channels associated with glutamate receptors was determined.
Synaptosomes were placed into the incubation buffer A (132 mM NaCl, 5 mM KCl, 5 mM HEPES) and were kept at 0 degrees Celsius (“C”) during the entire experiment. Aliquots of synaptosomes (50µl) were placed in the media A, containing investigated compounds and a preparation of the radiolabeled calcium, ^45Ca. […] A specific calcium uptake was calculated using the following equation K(43/21)=[(Ca4−Ca3)/(Ca2−Ca1)]*100% where: Ca1 is a calcium uptake in a control experiment (no glutamate or test compound added); Ca2 is a calcium uptake in the presence of glutamate only (Glutamate Induced Calcium Uptake—GICU); Ca3 is a calcium uptake in the presence of a test compound only (no glutamate added); Ca4 is a calcium uptake in the presence of both glutamate and a test compound.

[8] = target: acetylcholinesterase (Homo sapiens, UniProt P22303); details: recombinant enzyme and fresh blood samples from three volunteers; read-out: acetylcholinesterase half-maximal inhibitory concentration (IC50); cited from earlier work
Chain of acetylcholinesterase (P22303 32-574 limits assumed): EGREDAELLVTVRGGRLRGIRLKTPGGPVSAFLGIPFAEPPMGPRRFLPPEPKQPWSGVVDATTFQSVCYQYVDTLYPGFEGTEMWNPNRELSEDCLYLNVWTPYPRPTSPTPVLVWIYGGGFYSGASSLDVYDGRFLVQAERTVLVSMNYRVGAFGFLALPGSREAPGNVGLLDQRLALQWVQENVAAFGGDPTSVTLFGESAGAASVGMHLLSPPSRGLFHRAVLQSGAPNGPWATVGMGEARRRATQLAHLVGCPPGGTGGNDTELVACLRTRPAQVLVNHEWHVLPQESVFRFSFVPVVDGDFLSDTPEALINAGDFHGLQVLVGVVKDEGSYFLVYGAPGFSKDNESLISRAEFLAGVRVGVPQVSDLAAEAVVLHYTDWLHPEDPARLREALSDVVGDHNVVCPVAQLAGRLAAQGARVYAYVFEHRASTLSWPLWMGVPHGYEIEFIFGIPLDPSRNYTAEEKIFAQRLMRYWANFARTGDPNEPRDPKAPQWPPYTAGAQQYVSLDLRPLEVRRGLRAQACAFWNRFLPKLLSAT

[9] = test system: SK—N—SH human neuroblastoma cells; details: ionomycin-treated cells (70 percent without drug); picomolar concentrations; cited from earlier work
[10] = test system: SK—N—SH human neuroblastoma cells; details: ionomycin-treated cells (40 percent without drug); picomolar concentration; cited from earlier work
[11] = test system: patients with mild to moderate AD; details: cited from earlier work

Cc1ccc2c(c1)c1c(n2CCc2ccc(C)nc2)CCN(C)C1 [dimebon]
protection of mitochondrial function (TMRM probe) [1]: protected cells from ionomycin-induced stress
neurite outgrowth [2]: increased neurite outgrowth as well as did BDNF
age-related weight depletion [3]: No weight depletion was observed
development of non-fatal pathologies (loss of vision and alopecia) [3]: slowing of the development of non-fatal pathologies
probability of death ([3]; from age 12 months): lower in all age groups
amount of animals with cataract vs control ([3]; 13 to 20 months old mice): significantly less
prevention of neurotoxin-induced opening of mitochondrial pores [4]: prevented
Ki [5]: 97 µM
participants/patients reporting gastrointestinal problems [6]: less than 3%
calcium-blocking properties (specific glutamate-induced 45Ca uptake) [7]: pronounced calcium-blocking properties
IC50 [8]: 31 to 72 µM
JC-1 red/green ratio relative to control cells [9]: 85-90%
cell survival (MTT) relative to control cells [10]: 75-85%
clinical endpoints and tolerability in one-year trial ([11]; one-year randomized double-blinded placebo-controlled trial, 183 patients): met all five clinical endpoints with strong statistical significance, and was very well tolerated
safety and tolerability ([11]; six-month open-label extension, exposure to 18 months): no safety or tolerability issues
